Several values for one entry are separate records, joined by “and”; a condition that tells them apart may be missing. Identical values can stand only once.
Experiments:
[1] = system: CFA induced inflammatory pain in the rat; test: Complete Freund's Adjuvant (CFA) induced inflammatory pain model; format: in vivo
Experimental: In this rat model of inflammatory pain, 100 uL of CFA diluted 1:1 with phosphate buffered saline was injected into the subplantar region of the right hind paw on Day 1. On day 3, test compounds were administered orally and rats were assessed for their reaction to a mechanical stimuli applied via an Analgesy® meter. Injection of CFA increased the rats' reactivity to painful stimuli and this was reflected in a decrease in the amount of pressure they could tolerate prior to withdrawing their paw from the apparatus (hyperalgesia). An anti-hyperalgesic activity of the test compound was denoted by an increase in the amount of pressure they can tolerate prior to withdrawing their paw from the apparatus. The mean±SEM for each treatment group was determined and a Dunnett test was applied for comparison between vehicle and treated groups. Differences were considered significant at P<0.05. (see Bertorelli et al. 1999 Brit Journ Pharmacol 128:1252).

[2] = system: PBQ-induced writhing in the mouse; test: Phenylbenzoquinone-induced (PBQ) writhing model

SMILES | Post CFA PWT (grams) ([1]; 60 mg/kg PO) | Number of Writhes ([2]; Dose 3, PO) | Number of Writhes ([2]; Dose 10, PO) | Post CFA PWT (grams) ([1]; 10 mg/kg PO) | Post CFA PWT (grams) ([1]; 30 mg/kg PO) | Post CFA PWT (grams) ([1]; 56 mg/kg PO) | Number of Writhes ([2]; Dose 30, PO) | Number of Writhes ([2]; Dose 30, IP)
COc1ccc(C(=O)c2cc3cc(C)n(CCN4CCOCC4)c3s2)c(F)c1 [Compound I-68] | 178.7 ± 24.4 | 9.6 ± 2.2 | 5.92 ± 1.55 |  |  |  |  | 
COc1ccc(C(=O)c2cc3cc(C)n(CCCNS(C)(=O)=O)c3s2)cc1 [Compound I-44] |  | 13.9 ± 1.4 | 9.4 ± 2.6 | 164.4 ± 8.4 | 153.7 ± 10.7 | 150 ± 13.8 | 8.25 ± 2.54 and 9.7 ± 1.7 | 
COc1ccc(C(=O)c2cc3cc(C)n(CCN4CCOCC4)c3s2)cn1 [Compound I-58] | 170.3 ± 19.7 |  |  |  |  |  | 15.9 ± 2.7 | 1.1 ± 0.38
